# PMC10380841, “Synthesis, Characterization and Cytotoxic Evaluation of New Pyrrolo[1,2-b]pyridazines Obtained via Mesoionic Oxazolo-Pyridazinones” (International Journal of Molecular Sciences, 2023)
# Read-outs that look alike come from different tables or passages of the source.
# Columns and labels:
# [1] = Daphnia magna toxicity assay; assay type: in vivo; details: Daphnia magna, in vivo; 48 h
# Experimental: (§1) Young organisms of Daphnia magna were selected according to their size from a parthenogenetic culture maintained in an artificial medium for 24 h before the bioassay. The determination was conducted in tissue culture plates with 12 wells (Greiner Bio-One, Monroe, NC, USA), with 10 organisms in each well, and a final volume of 3 mL per sample [65, 66]. As a negative control, DMSO was used at a concentration of 1%. All compounds were tested at six different concentration levels, ranging from 12.5 to 500 μg/mL. All assessments were performed in duplicate.
# [2] = test system: Daphnia magna Straus; experiment: Daphnia magna toxicity assay; assay type: in vivo; details: 48 h
# Experimental: as §1
# [3] = test system: LoVo colon adenocarcinoma cells; experiment: MTS cytotoxicity assay, LoVo; assay type: cell-based, human; details: Homo sapiens
# Experimental: (§2) Therefore, the precursor acids 2a–c and corresponding pyrrolo[1,2-b]pyridazines 5a–c,f were tested for their potential cytotoxic activity. During the assays, increasing concentrations of the compounds, ranging from […], were added for 24 h or 48 h to cancer LoVo, SK-OV-3, MCF-7, and the reference HUVEC cells, previously cultured for 24 h in 96-well flat bottom plates. […] Then, MTS reagent was added, and cells were incubated for 4 h at 37 °C in a 5% CO2 humidified atmosphere. The absorbance values were spectrophotometrically read to a Dynex ELISA reader at λ = […].
# (§3) For the evaluation of the in vitro potential anti-proliferative effects of treatments with the new compounds under study against solid tumor-derived cells, several compound-mediated cytotoxicity assays were performed on three adherent tumor standardized cell lines, and normal human endothelial cells, used as control: the MCF-7 human breast adenocarcinoma and SK-OV-3 human ovary adenocarcinoma cell lines were provided from European Collection of Authenticated Cell Cultures (ECACC), while LoVo, human colorectal adenocarcinoma cell line, and HUVEC human umbilical vein endothelial cells were purchased from American Type Culture Collection (ATCC).
# (§4) Adherent cells were cultivated in DMEM/F12 medium added with 2 mM L-glutamine and 10% fetal bovine serum, 100 units/mL penicillin, 100 µg/mL streptomycin (Sigma Aldrich, St. Louis, MO, USA) and incubated at 37 °C in 5% CO2 humidified atmosphere. The stock solutions for cell treatments were prepared by dissolving the synthesized compounds in a minimum amount of DMSO. Working dilutions were prepared from the stock solutions in culture medium before each treatment assay. After 24 h, when cell cultures achieved around 70% confluence, treatments were applied for various periods of time with different concentrations of synthesized compounds or oncolytic drugs, used as positive controls.
# (§5) Therefore, cell cultures treated with the new compounds or oncolytic drugs for 24 h or 48 h were further subjected to a colorimetric cell viability method, the MTS assay. The absorbance of probes was read, data were calculated, and percentages of cell viability were assessed.
# (§6) The evaluation of the compound-induced cytotoxicity was made using the CellTiter 96 Aqueous One Solution Cell Proliferation Assay (Promega, Madison, WI, USA), a reagent that contains both MTS (3-(4,5-dimethylthiazol-2-yl)-5-(3-carboxymethoxyphenyl)-2-(4-sulfophenyl)-2H-tetrazolium, inner salt) and PES ([…], a cationic dye with high chemical stability that binds to MTS and forms a stable solution).
# (§7) Briefly, 1.5 × 10^4 cancer or normal cells were cultured in 100 µL/well for 24 h. After the culture supernatants were discarded, cells were treated for additional 24 h or 48 h with increasing concentrations of new compounds or oncolytic drugs. Following the specific treatments, in each well a volume of 20 µL of coloring mixture reagent of MTS and PES was added, and then the plates were incubated with mild agitation every 20 min for 4 h at 37 °C. The color developed during incubation was spectrophotometrically quantified at λ = 492 nm using a Dynex ELISA reader (DYNEX Technologies—MRS, Chantilly, VA, USA).
# (§8) Data were expressed as percentages of cell viability of the treated cells, and were calculated and compared to the untreated cells (considered 100% viable), using the formula:Cell viability (%) = (T − B)/(U − B) × 100 where T = absorbance of treated cells, U = absorbance of untreated cells, and B = absorbance of culture medium (blank), for λ = 492 nm.
# (§9) The cell viability data were expressed as the mean values ± standard deviations (SD) of three different experiments (n = 3). […] Moreover, a parallel experiment was performed in the absence of cells, with all the concentrations of the compounds being tested for their potential interference with MTS reagents; then, their absorbance values were extracted during calculations.
# [4] = test system: MCF-7 breast adenocarcinoma cells; experiment: MTS cytotoxicity assay, MCF-7; assay type: cell-based, human; details: Homo sapiens, MCF7; for viability at 200 µM: MCF-7, 200 μM; for viability at 200 µM / viability at 400 µM / viability at 40 µM: read-out: cell viability; for viability at 400 µM: MCF-7, 400 μM; for viability at 40 µM: MCF-7, 40 μM
# Experimental: as §2, §3, §4, §5
# as §6, with “solution). The assay is based on the ability of the metabolically active cells to reduce the yellow tetrazolium salt MTS to a compound that is soluble in culture medium, the colored formazan, followed by the spectrophotometric evaluation of its concentration.” for “solution).”
# as §7, §8
# The cell viability data were expressed as the mean values ± standard deviations (SD) of three different experiments (n = 3). […]
# [5] = test system: SK-OV-3 ovary adenocarcinoma cells; experiment: MTS cytotoxicity assay, SK-OV-3; assay type: cell-based, human; details: Homo sapiens
# Experimental: as §2, §3, §4, §5, §6, §7, §8, §9
# [6] = MTS cytotoxicity assay, HUVEC normal cells; assay type: cell-based, human; details: human, HUVEC human umbilical vein endothelial cells (normal cells), read-out: cell viability
# Experimental: as §2, §3, §4, §5, §6, §7, §8, §9
# [7] = test system: LoVo colon adenocarcinoma cells; experiment: MTS cytotoxicity assay, LoVo; assay type: cell-based; details: Homo sapiens, read-out: cell viability
# [8] = test system: SK-OV-3 ovary adenocarcinoma cells; experiment: MTS cytotoxicity assay, SK-OV-3; assay type: cell-based; details: Homo sapiens, read-out: cell viability; for viability at 400 µM: SK-OV-3, 400 μM; for viability at 40 µM: SK-OV-3, 40 μM
# [9] = test system: HUVEC human umbilical vein endothelial cells; experiment: MTS cytotoxicity assay, HUVEC normal cells; assay type: cell-based; details: for cytotoxic effect on HUVEC: 24 h
# Experimental: as §2, §3, §4, §5, §6, §7, §8, §9
# [10] = test system: Artemia nauplii; set-up: method as in PMID 16445096; details: at 24 and 48 h; cited from earlier work
# [11] = test system: Triticum aestivum L.; experiment: Triticum test, phytotoxicity (main root length); assay type: in vivo; details: Triticum aestivum, 72 h; Triticum root length, 10–1000 µM, measured over three days
# Experimental: Phytobiological testing (Triticum test) was performed by the Constantinescu method which consists in determining the maximum active dilution of a compound. Depending on the duration of action, it can influence root elongation and the […] film. […] Embryonic wheat roots were obtained by germinating homogeneous wheat caryopses in Linhart pots. Then the caryopses with a main root length of 1 cm were placed in the test solutions. For the determination of the action of each compound, five dilutions in the concentration range of 10–1000 µM were obtained and 11 caryopses were placed in them. Petri dishes containing 15 mL of diluted solution were kept under constant conditions of temperature (25 °C), and humidity (60%), in the absence of light. […] The results were expressed in comparison with a 1% DMSO control.
# Statistical analyses were performed using the computing and programming environment R, R, v. 4.2.1 [68], under Rstudio, v. 2022.07.2+576 “Spotted Wakerobin” for Windows (RStudio, PBC, Boston, 2022), both for the Triticum and Artemia tests. It used a parametric mixed-effects model (R package “lme4”) and a robust mixed-effects model (R package “robustlmm”), in which root length measurements (Triticum) from all three days were used as the dependent variable, whereas compound, concentration and time were treated as fixed effects, with time (day of measurement) also treated as a random effect. Assessing statistical significance for mixed-effects statistical models is controversial and complex, but as a pragmatic way of working, we have estimated p-values using the Kenward–Rogers approximation (R package “sjPlot”). A variety of R base functions and R packages were used to diagnose the regression models (“car” [72], “MASS” [73], and “gvlma” [74]). Mixed boxplot–dotplot plots were generated using the “ggplot2” package.
# The “drc” R package was used to estimate IC50 values for the Triticum bioassay by nonlinear modeling. For Triticum, the relationship between root length and concentration was modeled using Weibull functions with 2, 3, or 4 parameters, depending on the data distribution, the models being selected from a range of several models with different functions and parameters, based on the Akaike’s information criterion (AIC).
# [12] = MCF-7, 48 h, read-out: IC50 MCF-7 48 h
# [13] = SK-OV-3, 24 h, read-out: IC50 Sk-OV-3 24 h
# [14] = SK-OV-3, 48 h, read-out: IC50 Sk-OV-3 48 h
# [15] = MCF-7, 24 h, read-out: IC50 MCF-7 24 h
smiles,measurement,setting,value
"CCOC(=O)c1cc(CC)n2nc(-c3ccc(Cl)cc3)ccc12 [Compound 5f, Ethyl 2-(4-chlorophenyl)-7-ethylpyrrolo[1,2-b]pyridazine-5-carboxylate]",LC50 at 48 h,[1],428 µM
same,toxicity on Daphnia magna,[2],moderate toxicity
same,IC50,"[3]; 24 h, read-out: IC50 LoVo 24 h",≥ 400 µM
same,IC50,"[3]; 48 h, read-out: IC50 LoVo 48 h",353 ± 4.1 µM
same,viability at 200 µM,[4]; 48 h,97%
same,viability at 400 µM,[4]; 48 h,94%
same,IC50,[4]; [12],≥ 400 µM
same,IC50,[5]; [13],≥ 400 µM
same,IC50,[5]; [14],≥ 400 µM
same,"viability at 24 h, 400 µM","[6]; 400 μM, 24 h",90%
same,"viability at 48 h, 400 µM","[6]; 400 μM, 48 h",91.6%
same,viability at 400 µM,[7]; 24 h,78.2%
same,viability at 400 µM,[7]; 48 h,41.8%
same,viability at 400 µM,[8]; 48 h,83%
"COc1cccc2c1C(=O)c1c(O)c3c(c(O)c1C2=O)C[C@@](O)(C(=O)CO)C[C@@H]3O[C@H]1C[C@H](N)[C@H](O)[C@H](C)O1 [DOX, doxorubicin, reference compound]",viability at 40 µM,[4]; 24 h,41.8%
same,viability at 40 µM,[4]; 48 h,36.7%
same,IC50,[4]; [15],14.8 ± 4 µM
same,IC50,[4]; [12],11.6 ± 0.53 µM
same,IC50,[5]; [13],55.4 ± 2.98 µM
same,IC50,[5]; [14],12.1 ± 0.32 µM
same,"viability at 48 h, 40 µM","[6]; 40 μM, 48 h",81.7%
same,cytotoxic effect on HUVEC,[9],no remarkable cytotoxic effects
same,viability at 40 µM,[8]; 24 h,68.6%
same,viability at 40 µM,[8]; 48 h,35.2%
"O=c1[nH]cc(F)c(=O)[nH]1 [Compound 5-FU, 5-fluorouracil, reference compound]",IC50,"[3]; 24 h, read-out: IC50 LoVo 24 h",76.1 ± 3.09 µM
same,IC50,"[3]; 48 h, read-out: IC50 LoVo 48 h",66.2 ± 2.66 µM
same,viability at 200 µM,[4]; 24 h,45.5%
same,viability at 200 µM,[4]; 48 h (drug control),18.2%
same,IC50,[4]; [15],80.6 ± 4.39 µM
same,IC50,[4]; [12],60.4 ± 5.04 µM
same,cell viability,"[9]; 200 μM, 48 h",no significant effect
same,cytotoxic effect on HUVEC,[9],no remarkable cytotoxic effects
same,viability at 200 µM,[7]; 24 h,42.3%
same,viability at 200 µM,[7]; 48 h,28.7%
"CCOC(=O)c1cc(CC)n2nc(-c3ccccc3)ccc12 [Compound 5d, Ethyl 7-ethyl-2-phenylpyrrolo[1,2-b]pyridazine-5-carboxylate]",melting point,,99 to 101 °C
"O=c1n(Cl)c(=O)n(Cl)c(=O)n1Cl [TCIC, trichloroisocyanuric acid]",LC50,[10],< 1 µM
"CCC(C(=O)O)n1nc(-c2ccccc2)ccc1=O (stereo not shown) [Compound 2a, 2-(6-Oxo-3-phenylpyridazin-1-yl)butanoic acid]",IC50,[11],213 µM
same,LC50 at 48 h,[1],521 µM
same,toxicity on Daphnia magna,[2],moderate toxicity
same,IC50,"[3]; 24 h, read-out: IC50 LoVo 24 h",≥ 400 µM
same,IC50,"[3]; 48 h, read-out: IC50 LoVo 48 h",≥ 400 µM
same,viability at 200 µM,[4]; 48 h,97%
same,viability at 400 µM,[4]; 48 h,94%
same,IC50,[4]; [12],≥ 400 µM
same,IC50,[5]; [13],≥ 400 µM
same,IC50,[5]; [14],≥ 400 µM
same,viability at 200 µM,[7]; 48 h,82.9%
same,viability at 400 µM,[7]; 24 h,69.1%
same,viability at 400 µM,[7]; 48 h,60.8%
same,viability at 400 µM,[8]; 24 h,89.3%
same,viability at 400 µM,[8]; 48 h,85.1%
"CCOC(=O)C(CC)n1nc(-c2ccc(F)cc2)ccc1=O (stereo not shown) [Compound 1b, Ethyl 2-[6-oxo-3-(4-fluorophenyl)pyridazin-1-yl]butanoate]",melting point,,59 to 61 °C
"CCOC(=O)C(CC)n1nc(-c2ccccc2)ccc1=O (stereo not shown) [Compound 1a, Ethyl 2-(6-oxo-3-phenylpyridazin-1-yl)butanoate]",melting point,,56 to 58 °C
"CCOC(=O)C(CC)n1nc(-c2ccc(Cl)cc2)ccc1=O (stereo not shown) [Compound 1c, Ethyl 2-[6-oxo-3-(4-chlorophenyl)pyridazin-1-yl]butanoate]",melting point,,49 to 51 °C
"OC[P+](CO)(CO)CO [THPC, tetrakis(hydroxymethyl) phosphonium chloride]",LC50,[10],< 1 µM
